Measured values from PubChem BioAssay (NCI).
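GI50: concentration for 50% inhibition of growth. TGI denotes the concentration required for complete inhibition of growth.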

Tests used:
Assay in all cases: NCI anticancer screen, dose series, 384-well format
SN12C renal = tested on: SN12C renal
SK-OV-3 ovarian = tested on: SK-OV-3 ovarian
ACHN renal = tested on: ACHN renal
NCI-H460 NSCLC = tested on: NCI-H460 NSCLC
HL-60(TB) leukemia = tested on: HL-60(TB) leukemia
NCI/ADR-RES ovarian = tested on: NCI/ADR-RES ovarian
T-47D breast = tested on: T-47D breast
OVCAR-4 ovarian = tested on: OVCAR-4 ovarian
SK-MEL-5 melanoma = tested on: SK-MEL-5 melanoma
MOLT-4 leukemia = tested on: MOLT-4 leukemia
SR leukemia = tested on: SR leukemia
MDA-MB-231 breast = tested on: MDA-MB-231 breast
MALME-3M melanoma = tested on: MALME-3M melanoma
CAKI-1 renal = tested on: CAKI-1 renal
NCI-H522 lung = tested on: NCI-H522 lung
HCC-2998 colon = tested on: HCC-2998 colon
M14 melanoma = tested on: M14 melanoma
A549 NSCLC = tested on: A549 NSCLC
CCRF-CEM leukemia = tested on: CCRF-CEM leukemia
SF-295 CNS = tested on: SF-295 CNS
PC-3 prostate = tested on: PC-3 prostate
HOP-92 NSCLC = tested on: HOP-92 NSCLC
SNB-19 CNS = tested on: SNB-19 CNS
SK-MEL-2 melanoma = tested on: SK-MEL-2 melanoma
SF-539 CNS = tested on: SF-539 CNS
RPMI-8226 leukemia = tested on: RPMI-8226 leukemia
EKVX NSCLC = tested on: EKVX NSCLC
NCI-H322M lung = tested on: NCI-H322M lung
LOX IMVI melanoma = tested on: LOX IMVI melanoma
OVCAR-8 ovarian = tested on: OVCAR-8 ovarian
OVCAR-5 ovarian = tested on: OVCAR-5 ovarian
HCT-15 colon = tested on: HCT-15 colon
DU-145 prostate = tested on: DU-145 prostate
SK-MEL-28 melanoma = tested on: SK-MEL-28 melanoma
MDA-MB-468 breast = tested on: MDA-MB-468 breast
COLO 205 colon = tested on: COLO 205 colon
HT29 colon = tested on: HT29 colon
786-0 renal = tested on: 786-0 renal
A498 renal = tested on: A498 renal
SW-620 colon = tested on: SW-620 colon
NCI-H226 lung = tested on: NCI-H226 lung
UACC-257 melanoma = tested on: UACC-257 melanoma
MDA-MB-435 melanoma = tested on: MDA-MB-435 melanoma
NCI-H23 lung = tested on: NCI-H23 lung
MCF7 breast = tested on: MCF7 breast
OVCAR-3 ovarian = tested on: OVCAR-3 ovarian
SNB-75 CNS = tested on: SNB-75 CNS

Q: How did the GI50 (SN12C renal) turn out when `Cc1cc(F)c(C(=O)Nc2cccc(-c3nncn3C(C)C)n2)cc1-n1cnc(C2CC2)c1` was run?
A: Its GI50 is 19.4 µM.

Q: What about the TGI (SN12C renal) of the same compound?
A: The TGI was > 93.6 µM.

Q: And the GI50 (SK-OV-3 ovarian)?
A: The GI50 was 17.4 µM.

Q: What about the TGI (SK-OV-3 ovarian) of the same compound?
A: The TGI was 38.6 µM.

Q: What about the GI50 (ACHN renal) of the same compound?
A: Its GI50 is 11.5 µM.

Q: And the TGI (ACHN renal)?
A: Its TGI is 34.8 µM.

Q: What about the GI50 (NCI-H460 NSCLC) of the same compound?
A: The GI50 was 12.9 µM.

Q: What about the TGI (NCI-H460 NSCLC) of the same compound?
A: The TGI was 43 µM.

Q: And the GI50 (HL-60(TB) leukemia)?
A: Its GI50 is 6.26 µM.

Q: And the TGI (HL-60(TB) leukemia)?
A: Its TGI is 18.3 µM.

Q: What about the GI50 (NCI/ADR-RES ovarian) of the same compound?
A: The GI50 was 11.1 µM.

Q: And the TGI (NCI/ADR-RES ovarian)?
A: The TGI was 23.6 µM.

Q: And the GI50 (T-47D breast)?
A: The GI50 was 3.42 µM.

Q: And the TGI (T-47D breast)?
A: Its TGI is 14.6 µM.

Q: What about the GI50 (OVCAR-4 ovarian) of the same compound?
A: The GI50 was 17.2 µM.

Q: What about the TGI (OVCAR-4 ovarian) of the same compound?
A: Its TGI is 38.5 µM.

Q: What about the GI50 (SK-MEL-5 melanoma) of the same compound?
A: Its GI50 is 6.96 µM.

Q: And the TGI (SK-MEL-5 melanoma)?
A: Its TGI is 19.3 µM.

Q: What about the GI50 (MOLT-4 leukemia) of the same compound?
A: The GI50 was 5.69 µM.

Q: What about the TGI (MOLT-4 leukemia) of the same compound?
A: The TGI was 18.1 µM.

Q: And the GI50 (SR leukemia)?
A: The GI50 was 3.62 µM.

Q: What about the TGI (SR leukemia) of the same compound?
A: Its TGI is 11.2 µM.

Q: What about the GI50 (MDA-MB-231 breast) of the same compound?
A: The GI50 was 15.3 µM.

Q: What about the TGI (MDA-MB-231 breast) of the same compound?
A: Its TGI is > 85.9 µM.

Q: And the GI50 (MALME-3M melanoma)?
A: Its GI50 is 15.2 µM.

Q: What about the TGI (MALME-3M melanoma) of the same compound?
A: The TGI was 35 µM.

Q: And the GI50 (CAKI-1 renal)?
A: The GI50 was 12.6 µM.

Q: What about the TGI (CAKI-1 renal) of the same compound?
A: The TGI was 31.4 µM.

Q: And the GI50 (NCI-H522 lung)?
A: Its GI50 is 3.31 µM.

Q: What about the TGI (NCI-H522 lung) of the same compound?
A: The TGI was 13.7 µM.

Q: What about the GI50 (HCC-2998 colon) of the same compound?
A: Its GI50 is 16.7 µM.

Q: And the TGI (HCC-2998 colon)?
A: The TGI was 57.2 µM.

Q: What about the GI50 (M14 melanoma) of the same compound?
A: Its GI50 is 14.5 µM.

Q: What about the TGI (M14 melanoma) of the same compound?
A: Its TGI is 28.7 µM.

Q: And the GI50 (A549 NSCLC)?
A: Its GI50 is 8.05 µM.

Q: And the TGI (A549 NSCLC)?
A: The TGI was 66.6 µM.

Q: What about the GI50 (CCRF-CEM leukemia) of the same compound?
A: The GI50 was 7.73 µM.

Q: What about the TGI (CCRF-CEM leukemia) of the same compound?
A: Its TGI is 20.2 µM.

Q: And the GI50 (SF-295 CNS)?
A: The GI50 was 15.4 µM.

Q: What about the TGI (SF-295 CNS) of the same compound?
A: Its TGI is 98.9 µM.

Q: What about the GI50 (PC-3 prostate) of the same compound?
A: Its GI50 is 15.5 µM.

Q: What about the TGI (PC-3 prostate) of the same compound?
A: Its TGI is 30.2 µM.

Q: And the GI50 (HOP-92 NSCLC)?
A: The GI50 was 17.7 µM.

Q: What about the TGI (HOP-92 NSCLC) of the same compound?
A: Its TGI is > 82.9 µM.

Q: What about the GI50 (SNB-19 CNS) of the same compound?
A: Its GI50 is 22.6 µM.

Q: What about the TGI (SNB-19 CNS) of the same compound?
A: Its TGI is > 100 µM.

Q: What about the GI50 (SK-MEL-2 melanoma) of the same compound?
A: Its GI50 is 19.9 µM.

Q: What about the TGI (SK-MEL-2 melanoma) of the same compound?
A: The TGI was 35.5 µM.

Q: And the GI50 (SF-539 CNS)?
A: Its GI50 is 14.5 µM.

Q: What about the TGI (SF-539 CNS) of the same compound?
A: The TGI was 42.6 µM.

Q: What about the GI50 (RPMI-8226 leukemia) of the same compound?
A: Its GI50 is 2.09 µM.

Q: What about the TGI (RPMI-8226 leukemia) of the same compound?
A: Its TGI is 5.9 µM.

Q: And the GI50 (EKVX NSCLC)?
A: Its GI50 is 5.8 µM.

Q: And the TGI (EKVX NSCLC)?
A: Its TGI is 22.1 µM.

Q: And the GI50 (NCI-H322M lung)?
A: Its GI50 is 18.8 µM.

Q: And the TGI (NCI-H322M lung)?
A: The TGI was 44.6 µM.

Q: And the GI50 (LOX IMVI melanoma)?
A: Its GI50 is 13.7 µM.

Q: And the TGI (LOX IMVI melanoma)?
A: The TGI was 28.9 µM.

Q: What about the GI50 (OVCAR-8 ovarian) of the same compound?
A: The GI50 was 12 µM.

Q: What about the TGI (OVCAR-8 ovarian) of the same compound?
A: The TGI was 25.6 µM.

Q: What about the GI50 (OVCAR-5 ovarian) of the same compound?
A: The GI50 was 23.9 µM.

Q: And the TGI (OVCAR-5 ovarian)?
A: The TGI was > 80.5 µM.

Q: What about the GI50 (HCT-15 colon) of the same compound?
A: Its GI50 is 17.6 µM.

Q: And the TGI (HCT-15 colon)?
A: Its TGI is 45.3 µM.

Q: What about the GI50 (DU-145 prostate) of the same compound?
A: The GI50 was 6.87 µM.

Q: What about the TGI (DU-145 prostate) of the same compound?
A: The TGI was 27.8 µM.

Q: And the GI50 (SK-MEL-28 melanoma)?
A: Its GI50 is 17.8 µM.

Q: And the TGI (SK-MEL-28 melanoma)?
A: Its TGI is 35 µM.

Q: And the GI50 (MDA-MB-468 breast)?
A: Its GI50 is 3.39 µM.

Q: What about the TGI (MDA-MB-468 breast) of the same compound?
A: The TGI was 10.5 µM.

Q: And the GI50 (COLO 205 colon)?
A: Its GI50 is 3.83 µM.

Q: What about the TGI (COLO 205 colon) of the same compound?
A: Its TGI is 12.4 µM.

Q: What about the GI50 (HT29 colon) of the same compound?
A: Its GI50 is 22 µM.

Q: And the TGI (HT29 colon)?
A: The TGI was > 94.4 µM.

Q: What about the GI50 (786-0 renal) of the same compound?
A: Its GI50 is 15 µM.

Q: And the TGI (786-0 renal)?
A: The TGI was 40.4 µM.

Q: And the GI50 (A498 renal)?
A: The GI50 was 10.1 µM.

Q: What about the TGI (A498 renal) of the same compound?
A: Its TGI is > 76.6 µM.

Q: And the GI50 (SW-620 colon)?
A: Its GI50 is 13.9 µM.

Q: What about the TGI (SW-620 colon) of the same compound?
A: The TGI was 32.3 µM.

Q: And the GI50 (NCI-H226 lung)?
A: Its GI50 is 12.6 µM.

Q: And the TGI (NCI-H226 lung)?
A: The TGI was 31.4 µM.

Q: And the GI50 (UACC-257 melanoma)?
A: Its GI50 is 16.7 µM.

Q: And the TGI (UACC-257 melanoma)?
A: Its TGI is 31.2 µM.

Q: What about the GI50 (MDA-MB-435 melanoma) of the same compound?
A: The GI50 was 13.2 µM.

Q: And the TGI (MDA-MB-435 melanoma)?
A: The TGI was 30 µM.

Q: What about the GI50 (NCI-H23 lung) of the same compound?
A: Its GI50 is 4.62 µM.

Q: What about the TGI (NCI-H23 lung) of the same compound?
A: The TGI was 16.8 µM.

Q: What about the GI50 (MCF7 breast) of the same compound?
A: The GI50 was 12.3 µM.

Q: What about the TGI (MCF7 breast) of the same compound?
A: The TGI was 25.9 µM.

Q: What about the GI50 (OVCAR-3 ovarian) of the same compound?
A: The GI50 was 14.7 µM.

Q: What about the TGI (OVCAR-3 ovarian) of the same compound?
A: The TGI was 41.1 µM.

Q: And the GI50 (SNB-75 CNS)?
A: The GI50 was 13.5 µM.

Q: What about the TGI (SNB-75 CNS) of the same compound?
A: Its TGI is 27.6 µM.
